Laboratory results reported in patent publication US11291674B2 (CALITHERA BIOSCIENCES, INC., priority 2016, dated 2022).
Entries after “also recorded” stand apart in the source; their conditions may differ.

Experiments:
[1] = target: T1, Recombinant bovine endothelial NOS (Bos taurus, UniProt P29473); experiment: NOS activity assay, endothelial NOS; format: biochemical; conditions: 50 μM arginase inhibitor
T1 construct: Eurofins/Cerep Panlabs (contract laboratory that ran the assay)
Excerpt: (§1) Nitric oxide (NO) synthase (NOS) activity assays.
(§2) Standard deviations are indicated in parentheses. […] N/A=not applicable.

[2] = target: T2, Recombinant murine inducible NOS (Mus musculus, UniProt P29477); experiment: NOS activity assay, inducible NOS; format: biochemical; conditions: 50 μM arginase inhibitor
T2 construct: Eurofins/Cerep Panlabs (contract laboratory that ran the assay)
Excerpt: as §1, §2

CT26 cell line = experiment: Cytotoxicity assay (CellTiterGlo), CT26; format: cell-based, murine; conditions: 1 mM arginase inhibitor, 72 h
Experimental: (§3) Cytotoxicity assays. […] Cytotoxicity was assayed by the addition of CellTiterGlo reagent according to the manufacturer's instructions (Promega, Madison, Wis.) followed by […] quantification on a Molecular Devices plate reader (Sunnyvale, Calif.).

LLC cell line = experiment: Cytotoxicity assay (CellTiterGlo), LLC; format: cell-based, murine; conditions: 1 mM arginase inhibitor, 72 h
Experimental: as §3

4T1 cell line = experiment: Cytotoxicity assay (CellTiterGlo), 4T1; format: cell-based, murine; conditions: 1 mM arginase inhibitor, 72 h
Experimental: as §3

[3] = Pharmacokinetic and pharmacodynamic study in LLC tumor-bearing mice; format: in vivo, mouse
Excerpt: (****P<0.0001; ***P<0.001; **P<0.01 vs. vehicle).

4T1 tumors = experiment: 4T1 orthotopic tumor model; format: in vivo, mouse
Excerpt: (§4) Murine tumor studies. Female wild-type C57BL/6 and Balb/c mice (5-6 weeks old) were purchased from Charles River Laboratories (Hollister, Calif.). Severe combined immune deficient (SCID, B6.CB17-PrkdcSCID/SzJ) and Pmel-1 TCR transgenic (B6.Cg-Thyla/Cy Tg(TcraTcrb)8Rest/J) mice (5-6 weeks old) were purchased from The Jackson Laboratory (Bar Harbor, Me.). All mice were housed and treated in accordance with Institutional Animal Care and Use Committee guidelines. For the 4T1 tumor model, 1×10^5 cells were injected orthotopically into the mammary fat pad; for all other tumor models, 1×10^6 cells were injected subcutaneously (s.c.) in the right flank. […] Control groups received vehicle (water) twice daily by gavage. Tumor volume measured by digital caliper (length×width×width/2) and body weight were recorded three times weekly. Animals were euthanized when tumors necrotized or volumes reached 2000 mm^3. Anti-PD-L1 antibody (5 mg/kg, clone 10F.9G2, BioXCell, West Lebanon, N.H.) was injected intraperitoneally (i.p.) on days 5, 7, 9, 11, 13, and 15 for the CT26 model. Gemcitabine (Selleckchem, Houston, Tex.) was dosed 50 mg/kg i.p. on days 10 and 16 for the CT26 model or 60 mg/kg i.p. on days 6 and 10 for the LLC model. For CD8^+ cell depletion, mice were injected i.p. with anti-CD8 antibody (25 mg/kg, clone 2.43, BioXCell) on days −1, 0, +5, and +10. For NK cell depletion, mice were injected i.p. with anti-NK1.1 antibody (25 mg/kg, clone PK136, BioXCell) in the LLC and B16 models or with anti-Asialo GM1 sera (20 μL, Wako Chemicals, Richmond, Va.) in the CT26 model, per the same schedule as anti-CD8.
Tumor dissociation and flow cytometry. […] Excised tumors were placed in RPMI-1640 containing 5% FBS on ice, minced with a razor blade, and dissociated in RPMI-1640 supplemented with mouse tumor dissociation enzymes (Miltenyi Biotec, Bergisch Gladbach, Germany) on a GentleMACS Octo Dissociator With Heat (Miltenyi Biotec) according to the manufacturer's instructions. Dissociated tumors were strained through 70 μm nylon mesh, washed with cold PBS containing 2% FBS, blocked with anti-CD16/CD32 (Fc block antibody, eBioscience), and stained for cell surface antigens. For B16 and 4T1 tumors, washed dissociated tumor cells were incubated with Dead Cell Removal MicroBeads (Miltenyi Biotec) and applied to a magnetic column prior to staining. For intracellular staining, cells were fixed and permeabilized using buffers purchased from R&D Systems or eBioscience for cytoplasmic or nuclear antigens, respectively. All tumor flow experiments were acquired on an Attune N×T flow cytometer and analyzed with FlowJo software version 10 (Ashland, Oreg.), using fluorescence-minus-one controls for gating and single-stained OneComp eBeads (eBioscience) to set compensation matrices.

LLC tumors = LLC tumors in SCID mice; format: in vivo, mouse; conditions: 100 mg/kg PO twice daily
Experimental: Tumors from LLC studies were analyzed on study day 13 (CD8^+ cell depletion) or study day 14 (NK cell depletion). (****P<0.0001; ***P<0.001; **P<0.01).
as §4, with “For CD8^+ cell depletion, mice were injected i.p. with anti-CD8 antibody (25 mg/kg, clone 2.43, BioXCell) on days −1, 0, +5, and +10. For NK cell depletion, mice were injected i.p. with anti-NK1.1 antibody (25 mg/kg, clone PK136, BioXCell) in the LLC and B16 models or with anti-Asialo GM1 sera (20 μL, Wako Chemicals, Richmond, Va.) in the CT26 model, per the same schedule as anti-CD8.” left out

B16 tumors = experiment: Adoptive T cell transfer study, B16 model; format: in vivo, mouse; conditions: compared to either single agent; all groups cyclophosphamide plus fludarabine
Experimental: Adoptive T cell transfer studies. Activated gp100-specific CD8^+ (Pmel-1) T cells were generated as described in Ya et al. Briefly, splenocytes from Pmel-1 TCR transgenic mice were isolated, pulsed with 1 μM of murine gp10025-33 (Anaspec, Fremont, Calif.) and expanded for 1 week in the presence of 60 IU/mL recombinant human IL-2 (Peprotech, Rocky Hill, N.J.). Cells were >90% CD8^+Vβ13^+ T cells as determined by flow cytometry. C57BL/6 mice were inoculated s.c. with B16 tumor cells. […] On day 7, lymphopenia was induced by a non-myeloablative chemotherapy regimen of 250 mg/kg cyclophosphamide and 50 mg/kg fludarabine administered i.p. The chemotherapy regimen was administered to all groups. On day 9, mice were administered 1×10^6 Pmel-1 T cells intravenously (i.v.). Mice receiving Pmel-1 T cells also received recombinant human IL-2 (200,000 IU/dose) administered i.p. twice daily for 3 days starting the day of T cell transfer.

B16.F10 tumor = experiment: Example 1: arginase inhibitor with adoptive immunotherapy, B16.F10 tumors; format: in vivo, mouse; conditions: 100 mg/kg twice a day, vs adoptive T cell therapy only; survival P value 0.0137
Experimental: In order to test the effect of arginase inhibitors and adoptive immunotherapy on cancer progression, mice were inoculated with B16.F10 cells to generate a tumor. Approximately 1×10^6 cells were implanted in C57.Bl/6 mice. Mice were then treated with non-myeloablative chemotherapy (Cyclophosphamide 250 mg/kg and Fludarabine 50 mg/kg). Cyclophosphamide and Fludarabine were dosed via intraperitoneal injection on day 7 (FIG. 1A, orange arrow). Pme1-1 CD8 T cells (1×10^6) were intravenously transferred on day 8 (FIG. 1A, blue arrow). Recombinant human IL-2 (200,000 UI) was dosed via intraperitoneal injection twice a day on days 8, 9, 10 in mice receiving adoptive immunotherapy. […] Survival curves can be seen in FIG. 1C. P value is 0.0137, and was calculated by Mantel-Cox test. (N=9-10 per group).

[4] = 100 mg/kg BID, study day 10, flow cytometry

## C[C@H](N)C(=O)N1C[C@H](CCCB(O)O)[C@](N)(C(=O)O)C1 [arginase inhibitor]
[1]
  Inhibition of endothelial NOS: No inhibition
[2]
  Inhibition of inducible NOS: No inhibition
CT26 cell line
  Growth inhibition of CT26 cell line: No growth inhibition
LLC cell line
  Growth inhibition of LLC cell line: No growth inhibition
4T1 cell line
  Growth inhibition of 4T1 cell line: No growth inhibition
[3]; oral dosing, tumor-bearing mice
  L-arginine in tumor and plasma: raised the amount of L-arginine
[3]; single dose or BID dosing for 5 days, oral, 2 h after last dose
  Exposure of arginase inhibitor in tumor and plasma: dose-dependent exposure
4T1 tumors; 100 mg/kg BID PO
  Tumor growth, single agent: significantly inhibited the growth; also recorded: modest effect on tumor growth
4T1 tumors; [4]
  CD3+ T cells in the tumor vs vehicle: increase
  Myeloid cells in the tumor vs vehicle: decrease
  NK cells in the tumor vs vehicle: increase
LLC tumors
  Efficacy on LLC tumor growth in the SCID background: abrogated
B16 tumors
  Tumor growth, combination with T cells specific for the PMEL tumor antigen: significantly reduced tumor growth
B16.F10 tumor
  Tumor volume over 25 days, combination with adoptive T cell therapy: slower tumor progression
